Experimental data as given in BindingDB's records for doi:10.1002/cbic.200700524 (Universit&#224, 2008).

Legend:
[1] = target: Thymidylate synthase (Escherichia coli (strain K12), UniProt P0A884); assay: Inhibition Assay
Protocol: (§1) All compounds were screened for inhibitory activity against Lactobacillus casei thymidylate synthase (LcTS) and Escherichia coli thymidylate synthase (EsTS). The inhibition experiments were conducted by measuring the effects of the inhibitor at different concentrations on the initial velocity of the enzyme in the presence of a limited amount of the folate substrate.

[2] = target: T1, Thymidylate synthase (Lacticaseibacillus casei, UniProt P00469); assay: Inhibition Assay
T1 sequence (P00469 whole entry): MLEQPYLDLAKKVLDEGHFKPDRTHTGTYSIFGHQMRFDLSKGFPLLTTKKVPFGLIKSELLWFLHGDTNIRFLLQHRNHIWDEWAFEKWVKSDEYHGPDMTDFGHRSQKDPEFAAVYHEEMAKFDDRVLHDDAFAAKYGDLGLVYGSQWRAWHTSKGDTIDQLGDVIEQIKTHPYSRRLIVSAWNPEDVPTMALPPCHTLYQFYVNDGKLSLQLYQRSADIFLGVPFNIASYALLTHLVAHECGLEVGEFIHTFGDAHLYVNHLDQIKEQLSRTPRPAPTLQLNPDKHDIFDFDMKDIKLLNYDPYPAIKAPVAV
Protocol: as §1

Chain of Thymidylate synthase (Escherichia coli (strain K12), UniProt P0A884) (P0A884 whole entry): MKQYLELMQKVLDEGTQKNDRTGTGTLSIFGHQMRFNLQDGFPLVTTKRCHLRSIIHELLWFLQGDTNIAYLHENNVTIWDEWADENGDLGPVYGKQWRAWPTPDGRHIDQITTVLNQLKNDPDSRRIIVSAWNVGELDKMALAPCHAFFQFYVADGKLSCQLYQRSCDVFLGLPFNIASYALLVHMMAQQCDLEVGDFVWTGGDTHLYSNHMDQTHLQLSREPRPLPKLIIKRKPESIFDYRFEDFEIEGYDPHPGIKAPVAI

Compound	Ki [1]	Ki [2]
CN(C)c1cccc2c(S(=O)(=O)Oc3ccc(C[C@H](NS(=O)(=O)c4ccc([N+](=O)[O-])cc4)C(=O)O)cc3)cccc12 [Dansyl derivative, 3L]	> 1330 µM	2.5 µM
CN(C)c1cccc2c(S(=O)(=O)Oc3ccc(C[C@H](NC(=O)c4ccc([N+](=O)[O-])cc4)C(=O)O)cc3)cccc12 [Dansyl derivative, 4L]	> 1330 µM	15 µM
CN(C)c1cccc2c(S(=O)(=O)Oc3ccc(C[C@H](NS(=O)(=O)c4ccc(C(F)(F)F)cc4[N+](=O)[O-])C(=O)O)cc3)cccc12 [Dansyl derivative, 5L]	> 636 µM	6.7 µM
CN(C)c1cccc2c(S(=O)(=O)Oc3ccc4c(c3)CN(S(=O)(=O)c3ccc(C(F)(F)F)cc3[N+](=O)[O-])[C@H](C(=O)O)C4)cccc12 [Dansyl derivative, 5R]	61 µM	5.5 µM
CN(C)c1cccc2c(S(=O)(=O)Oc3ccc(C[C@H](NS(=O)(=O)CC45CCC(C(=O)C4)C5(C)C)C(=O)O)cc3)cccc12 (stereo not given in full) [Dansyl derivative, 6L]	> 1340 µM	5.8 µM
CN(C)c1cccc2c(S(=O)(=O)Oc3ccc4c(c3)CN(S(=O)(=O)CC35CCC(C(=O)C3)C5(C)C)[C@H](C(=O)O)C4)cccc12 (stereo not given in full) [Dansyl derivative, 6R]	131 µM	23 µM
CN(C)c1cccc2c(S(=O)(=O)Oc3ccc(C[C@H](NC(=O)c4ccc5ccccc5c4)C(=O)O)cc3)cccc12 [Dansyl derivative, 7L]	> 1470 µM	17 µM
CN(C)c1cccc2c(S(=O)(=O)Oc3ccc4c(c3)CN(C(=O)c3ccc5ccccc5c3)[C@H](C(=O)O)C4)cccc12 [Dansyl derivative, 7R]	1530 µM	9.4 µM
CN(C)c1cccc2c(S(=O)(=O)Oc3ccc(C[C@H](NS(=O)(=O)Cc4ccccc4)C(=O)O)cc3)cccc12 [Dansyl derivative, 8L]	> 1800 µM	4.7 µM
CN(C)c1cccc2c(S(=O)(=O)Oc3ccc4c(c3)CN(S(=O)(=O)Cc3ccccc3)[C@H](C(=O)O)C4)cccc12 [Dansyl derivative, 8R]	194 µM	10 µM
CN(C)c1cccc2c(S(=O)(=O)Oc3ccc(C[C@H](NS(=O)(=O)c4cc(Br)c(Br)s4)C(=O)O)cc3)cccc12 [Dansyl derivative, 9L]	> 1330 µM	27 µM
CN(C)c1cccc2c(S(=O)(=O)Oc3ccc4c(c3)CN(S(=O)(=O)c3cc(Br)c(Br)s3)[C@H](C(=O)O)C4)cccc12 [Dansyl derivative, 9R]	60 µM	4 µM

The next molecules have a lower Ki [1] than those just listed; values first:

Ki [1]	Ki [2]	Compound
36 µM	15 µM	CN(C)c1cccc2c(S(=O)(=O)Oc3ccc4c(c3)CN(C(=O)c3ccc([N+](=O)[O-])cc3)[C@H](C(=O)O)C4)cccc12 [Dansyl derivative, 4R]
23 µM	5.9 µM	CN(C)c1cccc2c(S(=O)(=O)Oc3ccc4c(c3)CN(S(=O)(=O)c3ccc([N+](=O)[O-])cc3)[C@H](C(=O)O)C4)cccc12 [Dansyl derivative, 3R]
13 µM	0.8 µM	CN(C)c1cccc2c(S(=O)(=O)Oc3ccc4c(c3)CN(S(=O)(=O)c3cccc5c(N(C)C)cccc35)[C@H](C(=O)O)C4)cccc12 [Dansyl derivative, rigid DDT, 1R]
8.2 µM	4.4 µM	CN(C)c1cccc2c(S(=O)(=O)N[C@@H](Cc3cc(I)c(OS(=O)(=O)c4cccc5c(N(C)C)cccc45)c(I)c3)C(=O)O)cccc12 [Dansyl derivative, 2L]
7 µM	3.6 µM	CN(C)c1cccc2c(S(=O)(=O)Oc3c(I)cc4c(c3I)CN(S(=O)(=O)c3cccc5c(N(C)C)cccc35)[C@H](C(=O)O)C4)cccc12 [Dansyl derivative, 2R]
1.8 µM	–	CN(C)c1cccc2c(S(=O)(=O)N[C@@H](Cc3ccc(OS(=O)(=O)c4cccc5c(N(C)C)cccc45)cc3)C(=O)O)cccc12 [Dansyl derivative, DDT, 1L]
